Experimental data as given in paper PMC12869404 (Virology, 2020).
Where no end group is shown, it is not given here.

The substances below were run on glycan-specific, HIV-1 gp120 NAb, 2G12 (assay: M13 Binding ELISA, assay control NAb 2G12). Settings: control NAb 2G12 coated 1 μg/well; > 2.5E+9 = no binding.

Substance	Binding Titer (M13/ml) 2G12
NWFDRSHTLFHS [4E10 PhD 12–3]	> 2.5E+9 M13/ml
LPNWFNLSSNLM [4E10 PhD 12–11]	> 2.5E+9 M13/ml
DMRSIFHDNPFN [4E10 PhD 12–6]	> 2.5E+9 M13/ml
TNFFELTTKLHR [4E10 PhD 12–10]	> 2.5E+9 M13/ml
SVSVGMKPSPRP [4E10 PhD 12–2]	> 2.5E+9 M13/ml
GPILANYSDITN [Z13 PhD 12–3]	> 2.5E+9 M13/ml
PFGFELW (disulfide (positions not given here)) [Z13 PhD c7c-2]	> 2.5E+9 M13/ml
HNSQNLDRWAII [2F5 PhD 12–1]	> 2.5E+9 M13/ml
SEELDKWYNTLT [2F5 PhD 12–3]	> 2.5E+9 M13/ml
QSYNWFDHTRWI [4E10 PhD 12–8]	> 2.5E+9 M13/ml
DKWASFD (disulfide (positions not given here)) [2F5 PhD c7c-2]	> 2.5E+9 M13/ml
SIFDWPR (disulfide (positions not given here)) [4E10 PhD c7c-1]	> 2.5E+9 M13/ml
NWFNLTQTLMPR [4E10 PhD 12–1]	> 2.5E+9 M13/ml
QHWNYFDLSEQQ [Z13 PhD 12–2]	> 2.5E+9 M13/ml
SHTLNFLDLTST [Z13 PhD 12–1]	> 2.5E+9 M13/ml
ERMLFEW (disulfide (positions not given here)) [4E10 PhD c7c-2]	> 2.5E+9 M13/ml
ALCLGPR (disulfide (positions not given here)) [Z13 PhD c7c-1]	> 2.5E+9 M13/ml
NWFDGTTTLWHR [4E10 PhD 12–4]	> 2.5E+9 M13/ml
GYWSDYWGMTTH [4E10 PhD 12–7]	> 2.5E+9 M13/ml
TLDIFRN (disulfide (positions not given here)) [4E10 PhD c7c-3]	> 2.5E+9 M13/ml
NFWELSKYLHMA [4E10 PhD 12–9]	> 2.5E+9 M13/ml
YFFDRSS (disulfide) [4E10 PhD c7c-4]	> 2.5E+9 M13/ml
MELDKWA (disulfide (positions not given here)) [2F5 PhD c7c-1]	> 2.5E+9 M13/ml
SEMDDKWAKMKI [2F5 PhD 12–2]	> 2.5E+9 M13/ml

The substances below were run on HIV-1 PSVs (assay: TZMbl neutralization assay of immunized mouse sera). Settings: animals immunized with mimotopes alone; TZMbl and PBMC assays, Fig. 5.

Substance	neutralizing responses of sera
LPNWFNLSSNLM [4E10 PhD 12–11]	detectable, low titer neutralizing responses
GYWSDYWGMTTH [4E10 PhD 12–7]	detectable, low titer neutralizing responses
